Experimental data reported in patent US10894036B2, “Use of marizomib for the treatment of central nervous system (CNS) cancers” (Celgene International II Sàrl, priority 2016, dated 2021).

Assay: Phase 1/2 MRZ + BEV and MRZ monotherapy in recurrent G4 MG: adverse events, DLT
[1] = MRZ+BEV, 36 pts, as of 12 Sep. 2016

Experimental: The clinical trial was a Phase 1, dose-escalation (3+3 design) followed by dose-expansion at recommended Phase 2 Dose (RP2D).
The drugs were infused on 28-Day Cycles. Tumor response is assessed every other cycle by RANO criteria.
The safety data will be presented in individual listings and summary tables, including frequency tables for adverse events and frequency and shift tables for laboratory variables. The safety population will be all subjects who received at least one dose of either study drug in Phase 1 or MRZ in Phase 2.

C[C@@]12OC(=O)[C@]1([C@@H](O)[C@@H]1C=CCCC1)NC(=O)[C@@H]2CCCl [marizomib]
confusional state, marizomib-related adverse events ≥3, patients (MRZ + BEV, N = 36): 3
headache, marizomib-related adverse events ≥3, patients (MRZ + BEV, N = 36): 3
patients with marizomib-related serious adverse events (MRZ + BEV, N = 36): Four
Anaemia: # pts, related to MRZ (MRZ+BEV, 12 Sep. 2016): 6
Anxiety: # pts, related to MRZ (MRZ+BEV, 12 Sep. 2016): 0
Aphasia: # pts, related to MRZ (MRZ+BEV, 12 Sep. 2016): 0
Appendicitis Perforated: # pts, related to MRZ (MRZ+BEV, 12 Sep. 2016): 0
Asthenia: # pts, related to MRZ (MRZ+BEV, 12 Sep. 2016): 0
Ataxia: # pts, related to MRZ (MRZ+BEV, 12 Sep. 2016): 6
Confusional State: # pts, related to MRZ (MRZ+BEV, 12 Sep. 2016): 6
Constipation: # pts, related to MRZ (MRZ+BEV, 12 Sep. 2016): 4
Convulsion: # pts, related to MRZ (MRZ+BEV, 12 Sep. 2016): 0
Delusion: # pts, related to MRZ (MRZ+BEV, 12 Sep. 2016): 1
Depressed Level of Consciousness: # pts, related to MRZ (MRZ+BEV, 12 Sep. 2016): 0
Diarrhoea: # pts, related to MRZ (MRZ+BEV, 12 Sep. 2016): 9
Dizziness: # pts, related to MRZ (MRZ+BEV, 12 Sep. 2016): 8
Dysarthria: # pts, related to MRZ (MRZ+BEV, 12 Sep. 2016): 1
Dysphagia: # pts, related to MRZ (MRZ+BEV, 12 Sep. 2016): 0
Dysphonia: # pts, related to MRZ (MRZ+BEV, 12 Sep. 2016): 0
Dyspnoea: # pts, related to MRZ (MRZ+BEV, 12 Sep. 2016): 0
Ear Infection: # pts, related to MRZ (MRZ+BEV, 12 Sep. 2016): 0
Embolism: # pts, related to MRZ (MRZ+BEV, 12 Sep. 2016): 0
Epistaxis: # pts, related to MRZ (MRZ+BEV, 12 Sep. 2016): 0
Falls: # pts, related to MRZ (MRZ+BEV, 12 Sep. 2016): 3
Fatigue: # pts, related to MRZ (MRZ+BEV, 12 Sep. 2016): 1
Fracture of Femur: # pts, related to MRZ (MRZ+BEV, 12 Sep. 2016): 0
Haemorrhage Intracranial: # pts, related to MRZ (MRZ+BEV, 12 Sep. 2016): 0
Hallucination: # pts, related to MRZ (MRZ+BEV, 12 Sep. 2016): 11
Headache: # pts, related to MRZ (MRZ+BEV, 12 Sep. 2016): 5
Hemiparesis: # pts, related to MRZ (MRZ+BEV, 12 Sep. 2016): 0
Hyperglycemia: # pts, related to MRZ (MRZ+BEV, 12 Sep. 2016): 0
Hypertension: # pts, related to MRZ (MRZ+BEV, 12 Sep. 2016): 0
Hypokalemia: # pts, related to MRZ (MRZ+BEV, 12 Sep. 2016): 0
Hyponatremia: # pts, related to MRZ (MRZ+BEV, 12 Sep. 2016): 1
Hypotension: # pts, related to MRZ (MRZ+BEV, 12 Sep. 2016): 0
Infusion Site Pain: # pts, related to MRZ (MRZ+BEV, 12 Sep. 2016): 6
Insomnia: # pts, related to MRZ (MRZ+BEV, 12 Sep. 2016): 1
Lymphocyte Count Decreased: # pts, related to MRZ (MRZ+BEV, 12 Sep. 2016): 0
Muscular Weakness: # pts, related to MRZ (MRZ+BEV, 12 Sep. 2016): 2
Nausea: # pts, related to MRZ (MRZ+BEV, 12 Sep. 2016): 19
Optic Nerve Disorder: # pts, related to MRZ (MRZ+BEV, 12 Sep. 2016): 0
Pyramidal Tract Syndrome: # pts, related to MRZ (MRZ+BEV, 12 Sep. 2016): 0
Tumor Metastasis: # pts, related to MRZ (MRZ+BEV, 12 Sep. 2016): 0
Vision Blurred: # pts, related to MRZ (MRZ+BEV, 12 Sep. 2016): 3
Vomiting: # pts, related to MRZ (MRZ+BEV, 12 Sep. 2016): 12
Anaemia: # events related to MRZ (MRZ+BEV, 17 May 2016): 9
Aphasia: # events related to MRZ (MRZ+BEV, 17 May 2016): 0
Appendicitis Perforated: # events related to MRZ (MRZ+BEV, 17 May 2016): 0
Asthenia: # events related to MRZ (MRZ+BEV, 17 May 2016): 0
Ataxia: # events related to MRZ (MRZ+BEV, 17 May 2016): 10
Confusional State: # events related to MRZ (MRZ+BEV, 17 May 2016): 8
Constipation: # events related to MRZ (MRZ+BEV, 17 May 2016): 5
Convulsion: # events related to MRZ (MRZ+BEV, 17 May 2016): 0
Delusion: # events related to MRZ (MRZ+BEV, 17 May 2016): 1
Diarrhoea: # events related to MRZ (MRZ+BEV, 17 May 2016): 12
Dizziness: # events related to MRZ (MRZ+BEV, 17 May 2016): 13
Dysarthria: # events related to MRZ (MRZ+BEV, 17 May 2016): 1
Dysphagia: # events related to MRZ (MRZ+BEV, 17 May 2016): 0
Dysphonia: # events related to MRZ (MRZ+BEV, 17 May 2016): 0
Dyspnoea: # events related to MRZ (MRZ+BEV, 17 May 2016): 0
Ear Infection: # events related to MRZ (MRZ+BEV, 17 May 2016): 0
Embolism: # events related to MRZ (MRZ+BEV, 17 May 2016): 0
Epistaxis: # events related to MRZ (MRZ+BEV, 17 May 2016): 0
Fatigue: # events related to MRZ (MRZ+BEV, 17 May 2016): 1
Haemorrhage Intracranial: # events related to MRZ (MRZ+BEV, 17 May 2016): 0
Hallucination: # events related to MRZ (MRZ+BEV, 17 May 2016): 16
Headache: # events related to MRZ (MRZ+BEV, 17 May 2016): 6
Hemiparesis: # events related to MRZ (MRZ+BEV, 17 May 2016): 0
Hyperglycemia: # events related to MRZ (MRZ+BEV, 17 May 2016): 0
Hypertension: # events related to MRZ (MRZ+BEV, 17 May 2016): 0
Hypokalemia: # events related to MRZ (MRZ+BEV, 17 May 2016): 1
Hypotension: # events related to MRZ (MRZ+BEV, 17 May 2016): 0
Insomnia: # events related to MRZ (MRZ+BEV, 17 May 2016): 1
Lymphocyte Count Decreased: # events related to MRZ (MRZ+BEV, 17 May 2016): 0
Muscular Weakness: # events related to MRZ (MRZ+BEV, 17 May 2016): 3
Nausea: # events related to MRZ (MRZ+BEV, 17 May 2016): 36
Pyramidal Tract Syndrome: # events related to MRZ (MRZ+BEV, 17 May 2016): 0
Vomiting: # events related to MRZ (MRZ+BEV, 17 May 2016): 16
Anaemia: # patients, AE related to labelled agent (BEV, MRZ, Both) [1]: 6
Anxiety: # patients, AE related to labelled agent (BEV, MRZ, Both) [1]: 0
Aphasia: # patients, AE related to labelled agent (BEV, MRZ, Both) [1]: 0
Appendicitis Perforated: # patients, AE related to labelled agent (BEV, MRZ, Both) [1]: 0
Asthenia: # patients, AE related to labelled agent (BEV, MRZ, Both) [1]: 0
Ataxia: # patients, AE related to labelled agent (BEV, MRZ, Both) [1]: 6
Confusional State: # patients, AE related to labelled agent (BEV, MRZ, Both) [1]: 6
Constipation: # patients, AE related to labelled agent (BEV, MRZ, Both) [1]: 4
Convulsion: # patients, AE related to labelled agent (BEV, MRZ, Both) [1]: 0
Delusion: # patients, AE related to labelled agent (BEV, MRZ, Both) [1]: 1
Depressed Level of Consciousness: # patients, AE related to labelled agent (BEV, MRZ, Both) [1]: 0
Diarrhoea: # patients, AE related to labelled agent (BEV, MRZ, Both) [1]: 9
Dizziness: # patients, AE related to labelled agent (BEV, MRZ, Both) [1]: 8
Dysarthria: # patients, AE related to labelled agent (BEV, MRZ, Both) [1]: 1
Dysphagia: # patients, AE related to labelled agent (BEV, MRZ, Both) [1]: 0
Dysphonia: # patients, AE related to labelled agent (BEV, MRZ, Both) [1]: 0
Dyspnoea: # patients, AE related to labelled agent (BEV, MRZ, Both) [1]: 0
Ear Infection: # patients, AE related to labelled agent (BEV, MRZ, Both) [1]: 0
Embolism: # patients, AE related to labelled agent (BEV, MRZ, Both) [1]: 0
Epistaxis: # patients, AE related to labelled agent (BEV, MRZ, Both) [1]: 0
Falls: # patients, AE related to labelled agent (BEV, MRZ, Both) [1]: 3
Fatigue: # patients, AE related to labelled agent (BEV, MRZ, Both) [1]: 1
Fracture of Femur: # patients, AE related to labelled agent (BEV, MRZ, Both) [1]: 0
Haemorrhage Intracranial: # patients, AE related to labelled agent (BEV, MRZ, Both) [1]: 0
Hallucination: # patients, AE related to labelled agent (BEV, MRZ, Both) [1]: 11
Headache: # patients, AE related to labelled agent (BEV, MRZ, Both) [1]: 5
Hemiparesis: # patients, AE related to labelled agent (BEV, MRZ, Both) [1]: 0
Hyperglycemia: # patients, AE related to labelled agent (BEV, MRZ, Both) [1]: 0
Hypertension: # patients, AE related to labelled agent (BEV, MRZ, Both) [1]: 0
Hypokalemia: # patients, AE related to labelled agent (BEV, MRZ, Both) [1]: 0
Hyponatremia: # patients, AE related to labelled agent (BEV, MRZ, Both) [1]: 1
Hypotension: # patients, AE related to labelled agent (BEV, MRZ, Both) [1]: 0
Infusion Site Pain: # patients, AE related to labelled agent (BEV, MRZ, Both) [1]: 6
Insomnia: # patients, AE related to labelled agent (BEV, MRZ, Both) [1]: 1
Lymphocyte Count Decreased: # patients, AE related to labelled agent (BEV, MRZ, Both) [1]: 0
Muscular Weakness: # patients, AE related to labelled agent (BEV, MRZ, Both) [1]: 2
Nausea: # patients, AE related to labelled agent (BEV, MRZ, Both) [1]: 19
Optic Nerve Disorder: # patients, AE related to labelled agent (BEV, MRZ, Both) [1]: 0
Pyramidal Tract Syndrome: # patients, AE related to labelled agent (BEV, MRZ, Both) [1]: 0
Tumor Metastasis: # patients, AE related to labelled agent (BEV, MRZ, Both) [1]: 0
Vision Blurred: # patients, AE related to labelled agent (BEV, MRZ, Both) [1]: 3
Vomiting: # patients, AE related to labelled agent (BEV, MRZ, Both) [1]: 12
tolerability (in combination with BEV and as monotherapy): generally well tolerated
